The record followed here is PubChem BioAssay AID2060502 (Molecular Pharmacology Branch, DTP, NCI, 2025).

“And” between values parts separate entries of the source, which are not always exact repeats. Equal values may be shown once. Where only a bound is given, the exact number is not on record here.

For this experiment, the system named is 885724-159-R-J1-PDC complex spheroid viability. Description: Anticancer human tumor 885724-159-R-J1-PDC patient-derived pancreatic adenocarcinoma cell line growth inhibition [GQUAD]. The settings on record: for viability, T/C: stronger effect = lower value. In outline:
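Viability of tumor cells grown as complex spheroids with endothelial and stromal cells, exposed to drug combinations. Top concentration at or near clinical Cmax (else 10 microM), diluted in half-log increments.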

Setting [1] is: curve of first compound, second compound 0.0316 µM.
Setting [2] is: curve of first compound, second compound 0.1 µM.
[3] abbreviates: curve of first compound, second compound 0.316 µM.
Setting [4] is: curve of first compound, second compound 1 µM.
Where [5] appears, read: curve of first compound, second compound 3.16 µM.
Where [6] appears, read: curve of first compound, second compound 10 µM.
Where [7] appears, read: second compound 0.0316 µM, first compound 0.0316 µM.
[8] abbreviates: second compound 0.0316 µM, first compound 0.316 µM.
Where [9] appears, read: second compound 0.1 µM, first compound 0.0316 µM.
Where [10] appears, read: second compound 0.1 µM, first compound 0.316 µM.
The mark [11] stands for this setting: second compound 0.316 µM, first compound 0.0316 µM.
Setting [12] is: second compound 0.316 µM, first compound 0.316 µM.
Where [13] appears, read: second compound 1 µM, first compound 0.0316 µM.
The mark [14] stands for this setting: second compound 1 µM, first compound 0.316 µM.
The mark [15] stands for this setting: second compound 3.16 µM, first compound 0.0316 µM.
[16] abbreviates: second compound 3.16 µM, first compound 0.316 µM.
Where [17] appears, read: second compound 10 µM, first compound 0.0316 µM.
The mark [18] stands for this setting: second compound 10 µM, first compound 0.316 µM.
Setting [19] is: second compound 0.0316 µM, first compound 0.1 µM.
Where [20] appears, read: second compound 0.0316 µM, first compound 1 µM.
Where [21] appears, read: second compound 0.0316 µM, first compound 3.16 µM.
[22] abbreviates: second compound 0.0316 µM, first compound 10 µM.
Where [23] appears, read: second compound 0.1 µM, first compound 0.1 µM.
Where [24] appears, read: second compound 0.1 µM, first compound 1 µM.
Where [25] appears, read: second compound 0.1 µM, first compound 3.16 µM.
[26] abbreviates: second compound 0.1 µM, first compound 10 µM.
[27] abbreviates: second compound 0.316 µM, first compound 0.1 µM.
Setting [28] is: second compound 0.316 µM, first compound 1 µM.
[29] abbreviates: second compound 0.316 µM, first compound 3.16 µM.
Where [30] appears, read: second compound 0.316 µM, first compound 10 µM.
The mark [31] stands for this setting: second compound 1 µM, first compound 0.1 µM.
Setting [32] is: second compound 1 µM, first compound 1 µM.
[33] abbreviates: second compound 1 µM, first compound 3.16 µM.
The mark [34] stands for this setting: second compound 1 µM, first compound 10 µM.
Where [35] appears, read: second compound 3.16 µM, first compound 0.1 µM.
[36] abbreviates: second compound 3.16 µM, first compound 1 µM.
Where [37] appears, read: second compound 3.16 µM, first compound 3.16 µM.
The mark [38] stands for this setting: second compound 3.16 µM, first compound 10 µM.
The mark [39] stands for this setting: second compound 10 µM, first compound 0.1 µM.
Setting [40] is: second compound 10 µM, first compound 1 µM.
The mark [41] stands for this setting: second compound 10 µM, first compound 3.16 µM.
The mark [42] stands for this setting: second compound 10 µM, first compound 10 µM.
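Also: spheroids exposed to agents for seven days before readout.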
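For viability, T/C in this document: percent of vehicle control viability where 100% = DMSO wells.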

For `CC[C@@]1(O)C(=O)OCc2c1cc1n(c2=O)Cc2cc3c(CN(C)C)c(O)ccc3nc2-1` + CN(C)c1ccc(Nc2c3ccc(NC(=O)CCN4CCCC4)cc3nc3cc(NC(=O)CCN4CCCC4)ccc23)cc1, the IC50 reads like this: under setting [1], greater than 0.316 µM; under setting [2], greater than 0.316 µM; under setting [3], greater than 0.316 µM; under setting [4], greater than 0.316 µM; under setting [5], greater than 0.316 µM; under setting [6], greater than 0.316 µM. The viability, T/C runs as follows: (second compound 0.0316 µM, first compound 0.000999 µM) 100%; (second compound 0.0316 µM, first compound 0.00316 µM) 93.2%; (second compound 0.0316 µM, first compound 0.00999 µM) 97.2%; under setting [7], 93.6%; (second compound 0.0316 µM, first compound 0.0999 µM) 76.7%; under setting [8], 67.7%. In addition, the viability, T/C is, setting by setting: (second compound 0.1 µM, first compound 0.000999 µM) 95.9%; (second compound 0.1 µM, first compound 0.00316 µM) 98.6%; (second compound 0.1 µM, first compound 0.00999 µM) 100%; under setting [9], 84.2%; (second compound 0.1 µM, first compound 0.0999 µM) 78%; under setting [10], 67.2%. Further, the viability, T/C was 78.5% (second compound 0.316 µM, first compound 0.000999 µM); 86.1% (second compound 0.316 µM, first compound 0.00316 µM); 83.2% (second compound 0.316 µM, first compound 0.00999 µM); 82.1% under setting [11]; 89.6% (second compound 0.316 µM, first compound 0.0999 µM); 63.9% under setting [12]. Further, the viability, T/C is 76.4% (second compound 1 µM, first compound 0.000999 µM); 82.3% (second compound 1 µM, first compound 0.00316 µM); 76.9% (second compound 1 µM, first compound 0.00999 µM); 65.4% under setting [13]; 87.2% (second compound 1 µM, first compound 0.0999 µM); 62.4% under setting [14]. Moreover, the viability, T/C was 81.3% (second compound 3.16 µM, first compound 0.000999 µM); 70.5% (second compound 3.16 µM, first compound 0.00316 µM); 74.8% (second compound 3.16 µM, first compound 0.00999 µM); 66.3% under setting [15]; 67.9% (second compound 3.16 µM, first compound 0.0999 µM); 51.6% under setting [16]. Further, the viability, T/C reads like this: (second compound 10 µM, first compound 0.000999 µM) 89.7%; (second compound 10 µM, first compound 0.00316 µM) 87.5%; (second compound 10 µM, first compound 0.00999 µM) 77.3%; under setting [17], 79.8%; (second compound 10 µM, first compound 0.0999 µM) 73.7%; under setting [18], 52.4%.

On to `CC[C@@]1(O)C(=O)OCc2c1cc1n(c2=O)Cc2cc3c(CN(C)C)c(O)ccc3nc2-1`, for which the viability, T/C (compound 0.000999 µM) was 86.3% and 93.6% and 89.6%; the viability, T/C (compound 0.00316 µM) was 104% and 87.4% and 88.3%; the viability, T/C (compound 0.00999 µM) was 99.2% and 92.9% and 93%; the viability, T/C (compound 0.0316 µM) was 80.8% and 92.5% and 101%; the viability, T/C (compound 0.0999 µM) is 85.6% and 74.7% and 90.8%; the viability, T/C (compound 0.316 µM) was 74.5% and 64.7% and 71.3%. The half-maximal inhibitory concentration (IC50) (curve of compound) was greater than 0.316 µM.

Consider `Nc1ccn(C2OC(CO)C(O)C2(F)F)c(=O)n1` (stereo unspecified) + Cc1[nH]c2ccc(F)cc2c1-c1nc2c3cccnc3c3ncccc3c2[nH]1, for which the concentration for half-maximal inhibition (IC50) runs as follows: under setting [1], greater than 10 µM; under setting [2], greater than 10 µM; under setting [3], greater than 10 µM; under setting [4], greater than 10 µM; under setting [5], less than 0.0316 µM; under setting [6], greater than 10 µM. For the same molecule, the viability, T/C under setting [7] is 92.8%; the viability, T/C under setting [19] was 100%; the viability, T/C under setting [8] is 75.2%; the viability, T/C under setting [20] was 75.6%; the viability, T/C under setting [21] was 75.3%; the viability, T/C under setting [22] was 80.8%. Besides, the viability, T/C was 94.3% under setting [9]; 82.2% under setting [23]; 71.4% under setting [10]; 79.5% under setting [24]; 73.8% under setting [25]; 86.6% under setting [26]. The viability, T/C under setting [11] was 93.6%; the viability, T/C under setting [27] was 89.3%; the viability, T/C under setting [12] is 77.3%; the viability, T/C under setting [28] is 72.2%; the viability, T/C under setting [29] was 79.3%; the viability, T/C under setting [30] is 69.3%. For the same molecule, the viability, T/C by setting is: under setting [13], 83.3%; under setting [31], 67.6%; under setting [14], 65.8%; under setting [32], 56.6%; under setting [33], 70.7%; under setting [34], 55%. For the same molecule, the viability, T/C was 43.3% under setting [15]; 26.1% under setting [35]; 28.3% under setting [16]; 22.6% under setting [36]; 26.1% under setting [37]; 20.3% under setting [38]. For the same molecule, the viability, T/C is 67.7% under setting [17]; 72.9% under setting [39]; 59% under setting [18]; 58.4% under setting [40]; 61.2% under setting [41]; 62% under setting [42].

With `COc1ncnc(C2CC2)c1-c1ncc2cnn(Cc3ccc(-c4nc(C(F)(F)F)cn4C(C)C)cc3)c2n1` + CN(C)c1ccc(Nc2c3ccc(NC(=O)CCN4CCCC4)cc3nc3cc(NC(=O)CCN4CCCC4)ccc23)cc1, the concentration for half-maximal inhibition (IC50) is, setting by setting: under setting [1], greater than 10 µM; under setting [2], greater than 10 µM; under setting [3], greater than 10 µM; under setting [4], greater than 10 µM; under setting [5], greater than 10 µM; under setting [6], greater than 10 µM. The viability, T/C is 96.8% under setting [7]; 101% under setting [19]; 85.6% under setting [8]; 86.9% under setting [20]; 81.4% under setting [21]; 105% under setting [22]. Also, the viability, T/C by setting is: under setting [9], 103%; under setting [23], 88.2%; under setting [10], 96.9%; under setting [24], 98%; under setting [25], 95%; under setting [26], 94.5%. Moreover, the viability, T/C runs as follows: under setting [11], 97.6%; under setting [27], 86.1%; under setting [12], 82.3%; under setting [28], 80.1%; under setting [29], 101%; under setting [30], 95.7%. The viability, T/C runs as follows: under setting [13], 77.5%; under setting [31], 70.4%; under setting [14], 81.1%; under setting [32], 67.7%; under setting [33], 79.3%; under setting [34], 83.1%. Moreover, the viability, T/C is, setting by setting: under setting [15], 79.2%; under setting [35], 76.7%; under setting [16], 68.8%; under setting [36], 58%; under setting [37], 77.4%; under setting [38], 78.1%. The viability, T/C is 61.3% under setting [17]; 66.5% under setting [39]; 73.5% under setting [18]; 70.5% under setting [40]; 63.1% under setting [41]; 47.8% under setting [42].

As for `CN(C)c1ccc(Nc2c3ccc(NC(=O)CCN4CCCC4)cc3nc3cc(NC(=O)CCN4CCCC4)ccc23)cc1`, the viability, T/C (compound 0.0316 µM) was 96.8% [middle of 12 runs]; the viability, T/C (compound 0.1 µM) was 97.9% [middle of 12 runs]; the viability, T/C (compound 0.316 µM) is 92.3% [middle of 12 runs]; the viability, T/C (compound 1 µM) was 79.7% [middle of 12 runs]; the viability, T/C (compound 3.16 µM) was 78.5% [middle of 12 runs]; the viability, T/C (compound 10 µM) is 84.1% [middle of 12 runs]. Further, the concentration for half-maximal inhibition (IC50) (compound alone, run of 02/26/2024) was greater than 10 µM.

Take `C#Cc1c(F)ccc2cc(O)cc(-c3ncc4c(N5CC6CCC(C5)N6)nc(OCC56CCCN5CC(F)C6)nc4c3F)c12` (stereo unspecified): the viability, T/C (compound 0.0316 µM) was 97.3% and 99.6% and 91.8%; the viability, T/C (compound 0.1 µM) is 101% and 92.4% and 93%; the viability, T/C (compound 0.316 µM) was 89.8% and 94.6% and 104%; the viability, T/C (compound 1 µM) is 90.2% and 88.2% and 81.5%; the viability, T/C (compound 3.16 µM) was 53.6% and 55.8% and 58.6%; the viability, T/C (compound 10 µM) is 30% and 25.7% and 22.7%. The IC50 (curve of compound) is 3.8 µM and 3.95 µM and 4.07 µM.

Regarding `COc1cc(C2c3cc4c(cc3C(OC3OC5COC(C)OC5C(O)C3O)C3COC(=O)C23)OCO4)cc(OC)c1O` (stereo unspecified), the viability, T/C is 91.7% and 104% and 96.9% (compound 0.0316 µM); 109% and 103% and 96.3% (compound 0.1 µM); 97.6% and 98.6% and 86.9% (compound 0.316 µM); 88.8% and 96.8% and 89% (compound 1 µM); 88.5% and 77.7% and 77.3% (compound 3.16 µM); 85.7% and 76.8% and 76.7% (compound 10 µM). Further, the IC50 (curve of compound) is greater than 10 µM.

Take `Cc1cccc(N(C)C(=O)C2C(O)CCN2c2nc(C)cc(C(F)(F)F)c2C#N)c1` (stereo unspecified): the viability, T/C reads like this: (compound 0.0316 µM) 98.5% and 93% and 97.9%; (compound 0.1 µM) 93.8% and 90.7% and 89.8%; (compound 0.316 µM) 90.9% and 103% and 97%; (compound 1 µM) 92.1% and 105% and 93.5%; (compound 3.16 µM) 97.1% and 97.4% and 96.8%; (compound 10 µM) 95.8% and 104% and 89.9%. The IC50 (curve of compound) was greater than 10 µM.

What is called IC50 is the midpoint of a concentration-inhibition curve. In general, viability, T/C refers to the result in the treated group divided by that in the control group, in per cent.
